Data as given in ChEMBL document CHEMBL1159023, “Fistularin 3 and 11-ketofistularin 3. Feline leukemia virus active bromotyrosine metabolites from the marine sponge Aplysina archeri” (J Nat Prod, 1992).

Legend:
Feline leukemia virus = test: Antiviral activity against Feline leukemia virus infected in cat CRFK cells assessed as inhibition of viral replication after 7 days by ELISA; assay type: functional; settings: 168 h, read-out: ED50 (the source's name)
[1] = Ratio of ID50 for cat CRFK cells to ED50 for Feline leukemia virus
[2] = Cytotoxicity against cat CRFK cells assessed as reduction in cell viability after 5 days by MTT assay; assay type: cell-based, Felis catus; settings: read-out: ID50

SMILES	EC50 (Feline leukemia virus)	Ratio [1]	CC50 at 120 h [2]
COC1=C(Br)[C@@H](O)[C@]2(C=C1Br)CC(C(=O)NCC(O)c1cc(Br)c(OCC(=O)CNC(=O)C3=NO[C@]4(C=C(Br)C(OC)=C(Br)[C@@H]4O)C3)c(Br)c1)=NO2 (some centres not stated)	42 µM	>11	> 449 µM
COC1=C(Br)[C@@H](O)[C@]2(C=C1Br)CC(C(=O)NCC(O)c1cc(Br)c(OCC(O)CNC(=O)C3=NO[C@]4(C=C(Br)C(OC)=C(Br)[C@@H]4O)C3)c(Br)c1)=NO2 (some centres not stated) [FISTULARIN 3]	22 µM	>20	> 449 µM
Nc1ccn([C@H]2CC[C@@H](CO)O2)c(=O)n1 [ZALCITABINE]	15 µM	133	1990 µM
Cc1cn([C@H]2C[C@H](N=[N+]=[N-])[C@@H](CO)O2)c(=O)[nH]c1=O [ZIDOVUDINE]	0.1 µM	15170	1520 µM
